Measured values from patent US11654159B2, “Therapeutic use of electroacupuncture-induced mesenchymal stem cells” (UNIVERSITY OF FLORIDA RESEARCH FOUNDATION, INC., priority 2016, dated 2023).

What was measured:
[1] = tested on: MSCs (Lin− CD90+CD44hi cells); test: Pharmacological disinhibition of the dorsomedial regions of the tuberal hypothalamus: blood cells by flow cytometry; format: in vivo, rat; details: rats
Method: Adult male Sprague-Dawley rats (300-350 g; Harlan Laboratories, Indianapolis, Ind.), were housed in plastic cages under standard environmental conditions (22° C.; 12/12 light/dark cycle; lights on at 7:00 A.M.) for 7-10 days prior to the surgical manipulations. Food and water were provided ad libitum. All experiments were conducted in accordance with the Guide for the Care and Use of Laboratory Animals, 8th Edition (Institute for Laboratory Animal Research, The National Academies Press, Washington, D.C., 2011) and the guidelines of the IUPUI Institutional Animal Care and Use Committee.
Once rats were anesthetized with an isoflurane system (MGX Research Machine; Vetamic, Rossville, Ind.), they were placed in a small animal stereotaxic frame (Model 963 Ultra Precise Frame, Kopf, Tujunga, Calif.). […]

[2] = tested on: rat MSCs (Lin− CD90+CD44hi cells); details: rats
Method: (§1) Sprague-Dawley rats were injected with epinephrine (SO, El Monte, Ca) intraperitoneally at 50 μg/kg. Uninjected rats were used as baseline controls. Rats were euthanized at 2, 4, and 6 hours post injection. Blood was collected and processed for flow cytometry as described below. A separate cohort of rats was injected IP with 50 mg/kg dopamine for 4 days consecutively. After last injection, rats were euthanized at 2 and 4 hours post injection. Blood was collected and processed for flow cytometry as described below.
PBMCs were isolated using lympholyte M (Cedarlene, Ontario, Canada) density gradient separation and centrifuged at room temperature at 740×g for 30 minutes.
PBMCs were stained with the MPFC protocols in real-time within 24 h after blood collection at the Angio BioCore, IUPUI, for the identification of MSCs as previously described.^50-53 23 PBMCs were incubated with Fc blocking reagent (Miltenyi Biotec or BD biosciences) for 10 minutes on ice and stained as published^50. Cells were incubated with titrated antibodies for 30 minutes at 4° C., washed twice in PBS with 2% FBS, fixed in 1% paraformaldehyde (Tousimis, Rockville, Md.), and run on a BD LSRII flow cytometer (BD) equipped with a 405 nm violet laser, 488 nm blue laser and 633 nm red laser. Data were acquired uncompensated and exported as FCS 3.0 files, and analyzed utilizing FlowJo software, version 9.7.5 or version X (Tree Star, Inc, Ashland, Oreg.). “Fluorescent minus one” (FMO) gating controls were used to ensure proper gating of positive events^50,52,54. In order to resolve the rare and/or dim populations of interest, specific antigen and fluorochrome conjugate coupling was optimized for the six-antibody plus a viability marker staining panel^50-54. BD compBeads (BD Biosciences) were used for color compensations.
Rat MSC were gated sequentially on FMO gates for LIVE/DEAD^−CD45^−erythroid cells^−CD31^−CD11b^− CD90^+CD44H^+ cells.

plasma NE = details: rats
Method: as §1
NE levels were measured in EA-treated horses using NE ELISA kit (ALPCO™, Salem, N.H.) according to the manufacturer's instructions. Plasma NE, Epi and DA levels were measured in EA treated rats using the TriCAT ELISA kit (ALPCO™).

MSCs = test: Propranolol pretreatment before EA: MSC mobilization; format: in vivo, mice
Description: Blood was collected and processed for flow cytometry as described below.

Question: With `C[N+]1(C)CCc2cc3c(cc2[C@H]1[C@@H]1OC(=O)c2c1ccc1c2OCO1)OCO3.[I-]` [bicuculline methiodide] as the compound, how does the “total number of cells in the blood” value ([1]; 30 pmol into tuberal hypothalamus, p=0.412) read?
Answer: did not alter

Question: And the “percentage of MSCs (Lin− CD90+CD44hi cells)” value ([1]; highest dose 50 pmol, 4 hours post injection, p=0.027)?
Answer: did increase

Question: How did the “time of increase in circulating MSCs” value ([2]; dopamine IP) turn out when `NCCc1ccc(O)c(O)c1` [dopamine] was run?
Answer: 2 h

Question: And the NE levels (plasma NE; dopamine 50 mg/kg for 4 consecutive days)?
Answer: pointed increase

Question: What about the “time of peak in plasma NE concentration post administration” value (plasma NE; dopamine IP) of the same compound?
Answer: 2 h

Question: For `CNC[C@H](O)c1ccc(O)c(O)c1` [epinephrine], which “MSCs in peripheral blood” value ([2]; epinephrine 50 μg/kg intraperitoneally, vs uninjected baseline, p=0.0125) is on record?
Answer: significant elevation

Question: And the “time of increase of rat MSCs in the circulation” value ([2]; epinephrine IP)?
Answer: 6 h

Question: `CC(C)NCC(O)COc1cccc2ccccc12` (stereo not drawn) [propranolol] was tested. Which “mobilization of MSCs by EA” value (MSCs; mice pretreated for 24 hours prior to EA, p<0.01) did it give?
Answer: prevented

Question: What about the “MSC mobilization by EA” value (MSCs; pretreatment, at 4 hours, compared to untreated animals, p=0.01) of the same compound?
Answer: inhibited
